The text below walks through data of ChEMBL document CHEMBL1157354, “Asymmetric synthesis of inhibitors of glycinamide ribonucleotide transformylase” (J Med Chem, 2008).

Experiment [1] has as its system CCRF-CEM. In words: Cytotoxicity against human CCRF-CEM cells in absence of thymidine and presence of hypoxanthine.
In experiment [2] the test system is CCRF-CEM. In words: Cytotoxicity against human CCRF-CEM cells in absence of thymidine and hypoxanthine.
The target in experiment [3] is Bifunctional purine biosynthesis protein ATIC (Homo sapiens, UniProt P31939). Kind of experiment: Inhibition of human recombinant AICAR transformylase.
Chain of Bifunctional purine biosynthesis protein ATIC (P31939 whole entry): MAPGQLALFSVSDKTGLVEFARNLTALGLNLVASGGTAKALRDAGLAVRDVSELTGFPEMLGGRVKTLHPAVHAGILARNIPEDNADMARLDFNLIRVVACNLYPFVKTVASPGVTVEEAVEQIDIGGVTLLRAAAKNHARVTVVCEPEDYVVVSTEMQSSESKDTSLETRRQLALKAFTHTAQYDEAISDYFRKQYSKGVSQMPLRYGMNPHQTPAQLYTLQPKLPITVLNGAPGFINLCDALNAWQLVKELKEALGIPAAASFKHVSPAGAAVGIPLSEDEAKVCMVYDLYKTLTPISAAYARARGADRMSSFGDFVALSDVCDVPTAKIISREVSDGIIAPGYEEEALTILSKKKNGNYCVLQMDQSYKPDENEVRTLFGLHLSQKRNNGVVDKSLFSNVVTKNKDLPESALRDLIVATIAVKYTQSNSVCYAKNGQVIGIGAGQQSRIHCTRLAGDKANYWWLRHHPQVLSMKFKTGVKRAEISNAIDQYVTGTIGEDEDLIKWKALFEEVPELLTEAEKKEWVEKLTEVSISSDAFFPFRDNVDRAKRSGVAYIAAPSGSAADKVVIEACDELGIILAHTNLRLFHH
The subject of experiment [4] is CCRF-CEM. In words: Cytotoxicity against human CCRF-CEM cells in presence of thymidine and absence of hypoxanthine.
Experiment [5] has as its system CCRF-CEM. In words: Cytotoxicity against folyl-poly-glutamate synthetase-deficient human CCRF-CEM cells in absence of thymidine and hypoxanthine.
For experiment [6], the system named is CCRF-CEM. Kind of experiment: Cytotoxicity against human CCRF-CEM cells expressing reduced folate carrier in absence of thymidine and hypoxanthine.
Experiment [7] concerns the target T1, Trifunctional purine biosynthetic protein adenosine-3 (Homo sapiens, UniProt P22102).
T1 sequence (P22102 whole entry): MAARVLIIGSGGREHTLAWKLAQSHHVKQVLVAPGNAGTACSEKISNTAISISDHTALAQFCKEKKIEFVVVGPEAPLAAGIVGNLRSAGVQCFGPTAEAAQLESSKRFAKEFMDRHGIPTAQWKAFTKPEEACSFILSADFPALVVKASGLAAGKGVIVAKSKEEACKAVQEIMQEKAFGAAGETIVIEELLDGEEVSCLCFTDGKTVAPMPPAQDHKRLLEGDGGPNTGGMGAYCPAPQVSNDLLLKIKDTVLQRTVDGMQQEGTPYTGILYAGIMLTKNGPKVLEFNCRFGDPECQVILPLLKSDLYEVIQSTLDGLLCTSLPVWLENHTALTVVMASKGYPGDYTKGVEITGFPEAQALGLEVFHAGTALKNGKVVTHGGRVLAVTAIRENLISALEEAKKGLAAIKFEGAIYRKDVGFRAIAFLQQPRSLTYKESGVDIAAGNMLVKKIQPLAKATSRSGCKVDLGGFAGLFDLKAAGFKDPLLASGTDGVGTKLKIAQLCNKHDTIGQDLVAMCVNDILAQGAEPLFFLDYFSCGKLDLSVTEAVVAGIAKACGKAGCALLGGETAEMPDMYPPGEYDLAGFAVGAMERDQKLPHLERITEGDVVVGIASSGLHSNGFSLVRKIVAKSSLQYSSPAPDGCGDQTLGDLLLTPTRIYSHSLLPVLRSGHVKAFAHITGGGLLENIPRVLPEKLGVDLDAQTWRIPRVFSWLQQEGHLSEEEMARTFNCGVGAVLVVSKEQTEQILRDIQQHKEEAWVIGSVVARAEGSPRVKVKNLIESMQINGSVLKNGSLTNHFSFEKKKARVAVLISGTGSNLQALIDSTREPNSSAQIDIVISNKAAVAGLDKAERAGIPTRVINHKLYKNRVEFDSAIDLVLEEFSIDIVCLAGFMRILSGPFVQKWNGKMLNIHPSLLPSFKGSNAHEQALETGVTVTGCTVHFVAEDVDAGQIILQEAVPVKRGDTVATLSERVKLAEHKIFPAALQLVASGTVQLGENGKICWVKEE
In words: Inhibition of human recombinant GAR transformylase.

Each structure is given as a SMILES string. pIC50, pKi: −log10 of the molar value. Where only a bound is given, the exact number is not on record here.

One may read the pIC50 as the negative decadic logarithm of the IC50, by convention in mol/L. By pKi is commonly meant the Ki on a negative log10 scale, so that one unit is a factor of ten. On to `Nc1nc(N)c(CCCC(C(=O)C(F)(F)F)c2ccc(C(=O)N[C@@H](CCC(=O)O)C(=O)O)cc2)c(=O)[nH]1` (some centres not stated), for which the pIC50 is under 5.00 in experiment [1], 7.80 in experiment [2], 7.77 in experiment [4] and under 5.00 in experiment [5]. The pKi in experiment [3] was under 4.00.
As for `CS[C@H](CCCc1c(N)nc(N)[nH]c1=O)c1ccc(C(=O)N[C@@H](CCC(=O)O)C(=O)O)cc1`, the pIC50 is under 5.00 in experiment [1]; 7.15 in experiment [6]; 7.10 in experiment [2]; 7.10 in experiment [4]; 5.26 in experiment [5]. The pKi in experiment [3] was under 4.00.
On to `CO[C@H](CCCc1c(N)nc(N)[nH]c1=O)c1ccc(C(=O)N[C@@H](CCC(=O)O)C(=O)O)cc1`, for which the negative logarithm of the IC50 (pIC50) was under 5.00 in experiment [1]; 6.22 in experiment [6]; 6.30 in experiment [2]; 6.15 in experiment [4]; 5.22 in experiment [5]. Besides, the pKi in experiment [3] is under 4.00.
In the case of `Nc1nc(N)c(CCCC2(c3ccc(C(=O)N[C@@H](CCC(=O)O)C(=O)O)cc3)SCCCS2)c(=O)[nH]1`, the values for the pIC50 in experiment [1], in experiment [2] and in experiment [4] were under 5.00, under 4.00 and under 4.00, respectively. For the same compound, in experiment [3], the pKi is 4.70.
In the case of `CO[C@@H](CCCc1c(N)nc(N)[nH]c1=O)c1ccc(C(=O)N[C@@H](CCC(=O)O)C(=O)O)cc1`, the pIC50 is under 5.00 in experiment [1]; 6.05 in experiment [6]; 6.15 in experiment [2]; 6.05 in experiment [4]; under 5.00 in experiment [5]. The negative-log Ki (pKi) in experiment [3] is under 4.00.
With `Nc1nc(N)c(CCC[C@@H](O)c2ccc(C(=O)N[C@@H](CCC(=O)O)C(=O)O)cc2)c(=O)[nH]1`, the pIC50 in experiment [1] was under 5.00; in experiment [2], 5.62; in experiment [4] it was 5.24; in experiment [5], under 5.00. Moreover, the pKi in experiment [7] was 5.96; in experiment [3], under 4.00.
`CS[C@@H](CCCc1c(N)nc(N)[nH]c1=O)c1ccc(C(=O)N[C@@H](CCC(=O)O)C(=O)O)cc1`: the pIC50 in experiment [1] is under 5.00; in experiment [6], 7.22; in experiment [2], 7.30; in experiment [4] it was 7.15; in experiment [5], 5.30. Besides, the pKi in experiment [3] was under 4.00.
`Nc1nc2c(c(=O)[nH]1)C[C@@H](CCc1ccc(C(=O)N[C@@H](CCC(=O)O)C(=O)O)cc1)CN2` [LOMETREXOL]: the pIC50 in experiment [1] was under 5.00; in experiment [6], under 4.00; in experiment [5] it was under 5.00. Besides, in experiment [3], the pKi was under 4.00.
Consider `Nc1nc(N)c(CCC[C@H](O)c2ccc(C(=O)N[C@@H](CCC(=O)O)C(=O)O)cc2)c(=O)[nH]1`, for which the pIC50 in experiment [1] and in experiment [5] was under 5.00 in each case. Moreover, the pKi in experiment [3] is under 4.00.
On to `Nc1nc(N)c(CCCCc2ccc(C(=O)N[C@@H](CCC(=O)O)C(=O)O)cc2)c(=O)[nH]1` [DIDEAZAACYCLOTETRAHYDROFOLIC ACID], for which the pIC50 in experiment [1] is under 5.00; in experiment [6] it was under 4.00; in experiment [2], 5.57; in experiment [4] it was 5.44; in experiment [5], under 5.00. In experiment [3], the pKi was 4.70.
